# Assay results published in US11214594B2, “Antimicrobial peptide having synergistic antibacterial effect with antibiotics on multidrug resistant bacteria, and use thereof” (priority 2016, dated 2022).
# Read-outs that look alike come from different tables or passages of the source. Where a SMILES comes first, the peptide text is derived from it.
# How the values were obtained:
# [1] = tested on: MDRPA 2003; type: cell-based, Pseudomonas aeruginosa
# Summary of the method: (§1)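 Broth microdilution in MH medium: strains diluted to 2×10^6 CFU were mixed with equal volumes of twofold serial peptide dilutions in MH medium. MIC was taken as the lowest peptide concentration preventing bacterial growth.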
# [2] = tested on: MDRPA 2002; type: cell-based, Pseudomonas aeruginosa
# Summary of the method: as §1
# [3] = tested on: A. baumannii; assay: MIC of antibiotic during combined treatment with antimicrobial peptide; type: cell-based, Acinetobacter baumannii; conditions: for Antibiotic MIC, Erythromycin / Antibiotic MIC, Linezolid / Antibiotic MIC, Vancomycin: A. baumannii
# Summary of the method: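 MIC values for mixed peptide plus antibiotic solutions were measured in MH medium.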
# [4] = tested on: gram-negative bacteria; assay: MIC, summary statements for gram-negative bacteria; type: cell-based; conditions: gram-negative bacteria
# Procedure: For the antibacterial activity, a minimal inhibitory concentration (MIC) of a peptide in which fungus bodies were not split in an MH medium with sufficient nutrients was measured.
# Specifically, the strains described in the following [Table 2] were purchased and diluted with an MH medium such that the number of bacteria was 2×10^6 colony-forming units (CFUs), 100 μl of each of the diluted strains was aliquoted into a 96-well microtiter plate, and then 100 μl of a peptide solution diluted with the MH medium (solution diluted stepwise at 2: 1) was added to each well.
# [5] = tested on: E. coli; type: cell-based, Escherichia coli; conditions: E. coli
# Summary of the method: (§2)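 Antibiotic MIC came from antibiotic dilutions added to bacteria (2×10^6 CFU/ml, MH medium) already combined with peptide serially diluted 2:1 from its own MIC. Swapping the roles of the two agents gave the peptide MIC.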
# [6] = tested on: MDREC 1229; type: cell-based, Escherichia coli
# Summary of the method: as §2
# [7] = tested on: B. subtilis; assay: microbe, parasite or virus in culture; type: cell-based, Bacillus subtilis
# Summary of the method: as §1
# [8] = tested on: MDRAB 12035; assay: MIC of antibiotic during combined treatment with antimicrobial peptide; type: cell-based, Acinetobacter baumannii
# Summary of the method: as §2
# [9] = tested on: MDRAB 12035; assay: microbe, parasite or virus in culture; type: cell-based, Acinetobacter baumannii
# Summary of the method: as §1
# [10] = tested on: A. baumannii; assay: microbe, parasite or virus in culture; type: cell-based, Acinetobacter baumannii
# Summary of the method: as §1
# [11] = combined with peptide at 1 μg/ml
# [12] = combined with peptide at 2 μg/ml
# [13] = combined with peptide at 4 μg/ml
# [14] = combined with peptide at 6 μg/ml
# [15] = combined with peptide at 8 μg/ml
# [16] = combined with peptide at 16 μg/ml
# [17] = combined with peptide at 32 μg/ml
# [18] = combined with peptide at 64 μg/ml
# [19] = with Erythromycin […] (Conc./MIC 1)
# [20] = peptide treatment concentration 1 μg/ml
# [21] = peptide treatment concentration 2 μg/ml
# [22] = peptide treatment concentration 4 μg/ml
# [23] = peptide treatment concentration 6 μg/ml
# [24] = peptide treatment concentration 8 μg/ml
# [25] = peptide treatment concentration 16 μg/ml
# [26] = peptide treatment concentration 32 μg/ml
# [27] = peptide treatment concentration 64 μg/ml
smiles,measurement,setting,value
"CC[C@H](C)[C@H](NC(=O)[C@H](CCCCN)NC(=O)[C@H](Cc1c[nH]c2ccccc12)NC(=O)[C@@H](N)CCCNC(=N)N)C(=O)N[C@@H](Cc1ccccc1)C(=O)N[C@@H](CCCCN)C(=O)N[C@@H](CCCCN)C(=O)N[C@H](C(=O)N1CCC[C@H]1C(=O)N[C@@H](CCCCN)C(=O)N[C@@H](Cc1ccccc1)C(=O)N[C@@H](CC(C)C)C(=O)N[C@@H](Cc1c[nH]cn1)C(=O)N[C@@H](CO)C(=O)N[C@@H](C)C(=O)N[C@@H](CCCCN)C(=O)N[C@@H](CCCCN)C(=O)N[C@@H](Cc1c[nH]c2ccccc12)C(N)=O)[C@@H](C)CC [PapMA-2, RWK IFK KIP KFL HSA KKW-NH2] (H-RWKIFKKIPKFLHSAKKW-NH2; N-terminus assumed)",Minimal inhibitory concentration MIC,[1],16 mg/L
same,Minimal inhibitory concentration MIC,[2],16 mg/L
same,Synergistic effect of antibacterial activity with existing antibiotics compared with PapMA-1,[3]; A. baumannii and MDRAB 12035,higher level than the PapMA-1 peptide
same,"Antibiotic MIC, Erythromycin",[3]; [11],16 mg/L
same,"Antibiotic MIC, Linezolid",[3]; [11],>128 mg/L
same,"Antibiotic MIC, Vancomycin",[3]; [11],>128 mg/L
same,"Antibiotic MIC, Erythromycin",[3]; [12],16 mg/L
same,"Antibiotic MIC, Linezolid",[3]; [12],64 mg/L
same,"Antibiotic MIC, Vancomycin",[3]; [12],128 mg/L
same,"Antibiotic MIC, Erythromycin",[3]; [13],8 mg/L
same,"Antibiotic MIC, Linezolid",[3]; [13],32 mg/L
same,"Antibiotic MIC, Vancomycin",[3]; [13],32 mg/L
same,"Antibiotic MIC, Erythromycin",[3]; [14],1 mg/L
same,"Antibiotic MIC, Linezolid",[3]; [14],16 mg/L
same,"Antibiotic MIC, Vancomycin",[3]; [14],16 mg/L
same,"Antibiotic MIC, Erythromycin",[3]; [15],0.125 mg/L
same,"Antibiotic MIC, Linezolid",[3]; [15],8 mg/L
same,"Antibiotic MIC, Vancomycin",[3]; [15],8 mg/L
same,"Antibiotic MIC, Erythromycin",[3]; [16],0 mg/L
same,"Antibiotic MIC, Linezolid",[3]; [16],0 mg/L
same,"Antibiotic MIC, Vancomycin",[3]; [16],0 mg/L
same,"Antibiotic MIC, Erythromycin",[3]; [17],0 mg/L
same,"Antibiotic MIC, Linezolid",[3]; [17],0 mg/L
same,"Antibiotic MIC, Vancomycin",[3]; [17],0 mg/L
same,"Antibiotic MIC, Erythromycin",[3]; [18],0 mg/L
same,"Antibiotic MIC, Linezolid",[3]; [18],0 mg/L
same,"Antibiotic MIC, Vancomycin",[3]; [18],0 mg/L
same,Antibacterial activity (in words),[4],comparable to papiliocin or melittin
same,Peptide MIC,[5]; [19],0 mg/L
same,Peptide MIC,[5]; with Linezolid […] (Conc./MIC 1),0 mg/L
same,Peptide MIC,[5]; with Vancomycin 1024 μg/ml (Conc./MIC 1),0 mg/L
same,Peptide MIC,[6]; [19],0 mg/L
same,Peptide MIC,[6]; with Linezolid 512 μg/ml (Conc./MIC 1),0 mg/L
same,Minimal inhibitory concentration MIC,[7],>128 mg/L
same,Erythromycin MIC during combined treatment with peptide,[8]; [20],32 mg/L
same,Linezolid MIC during combined treatment with peptide,[8]; [20],>128 mg/L
same,Vancomycin MIC during combined treatment with peptide,[8]; [20],>128 mg/L
same,Erythromycin MIC during combined treatment with peptide,[8]; [21],16 mg/L
same,Linezolid MIC during combined treatment with peptide,[8]; [21],64 mg/L
same,Vancomycin MIC during combined treatment with peptide,[8]; [21],>128 mg/L
same,Erythromycin MIC during combined treatment with peptide,[8]; [22],4 mg/L
same,Linezolid MIC during combined treatment with peptide,[8]; [22],32 mg/L
same,Vancomycin MIC during combined treatment with peptide,[8]; [22],128 mg/L
same,Erythromycin MIC during combined treatment with peptide,[8]; [23],2 mg/L
same,Linezolid MIC during combined treatment with peptide,[8]; [23],32 mg/L
same,Vancomycin MIC during combined treatment with peptide,[8]; [23],32 mg/L
same,Erythromycin MIC during combined treatment with peptide,[8]; [24],0.25 mg/L
same,Linezolid MIC during combined treatment with peptide,[8]; [24],8 mg/L
same,Vancomycin MIC during combined treatment with peptide,[8]; [24],16 mg/L
same,Erythromycin MIC during combined treatment with peptide,[8]; [25],0 mg/L
same,Linezolid MIC during combined treatment with peptide,[8]; [25],0 mg/L
same,Vancomycin MIC during combined treatment with peptide,[8]; [25],0 mg/L
same,Erythromycin MIC during combined treatment with peptide,[8]; [26],0 mg/L
same,Linezolid MIC during combined treatment with peptide,[8]; [26],0 mg/L
same,Vancomycin MIC during combined treatment with peptide,[8]; [26],0 mg/L
same,Erythromycin MIC during combined treatment with peptide,[8]; [27],0 mg/L
same,Linezolid MIC during combined treatment with peptide,[8]; [27],0 mg/L
same,Vancomycin MIC during combined treatment with peptide,[8]; [27],0 mg/L
same,Minimal inhibitory concentration MIC,[9],16 mg/L
same,"Peptide MIC, peptide alone",[9],16 mg/L
same,Minimal inhibitory concentration MIC,[10],16 mg/L
same,"Peptide MIC, peptide alone",[10],16 mg/L
same,Antibacterial activity relative to PapMA-1,[10]; A. baumannii and antibiotic-resistant strains thereof,4 times
